IC90 data for 21 molecules are collected here from US12679824B2 (Hoffmann-La Roche Inc., priority 2020, dated 2026).

By IC90 is commonly meant the concentration at which the effect reaches the 90% level.

In one experiment the test system is Acinetobacter baumannii ATCC17961. As to the kind of experiment: 90% Growth Inhibitory Concentration (IC90) determination, antimicrobial susceptibility testing. The format is cell-based. Conditions: Acinetobacter baumannii, ATCC17961, 16 h, Acinetobacter baumannii ATCC17961; Iso-Sensitest broth; growth by optical density at 600 nm over 16h; concentration inhibiting 90% of the growth; read-out: ATCC 17961 IC90. The method, then:
Antimicrobial Susceptibility Testing:
90% Growth Inhibitory Concentration (IC90) Determination
The in vitro antimicrobial activity of the compounds was determined according to the following procedure:
The assay used a 10-points Iso-Sensitest broth medium to measure quantitatively the in vitro activity of the compounds against Acinetobacter baumannii ATCC17961.
Stock compounds in DMSO were serially twofold diluted (e.g. range from 50 to 0.097 μM final concentration) in 384 wells microtiter plates and inoculated with 49 μl the bacterial suspension in Iso-Sensitest medium to have a final cell concentration of ~5×10^(5) CFU/ml in a final volume/well of 50 ul/well. Microtiter plates were incubated at 35±2° C.
Bacterial cell growth was determined with the measurement of optical density at λ=600 nm each 20 minutes over a time course of 16h. Growth inhibition was calculated during the logarithmic growth of the bacterial cells with determination of the concentration inhibiting 50% (IC50) and 90% (IC90) of the growth.
Table 1 provides the 90% growth inhibitory concentrations (IC90) in micromoles per liter of the compounds of present invention obtained against the strain Acinetobacter baumannii ATCC17961.
As to `Cn1c(-c2cn(-c3ccc(N)cn3)nc2C(F)(F)F)cnc1C(=O)Nc1ccc(C(=O)NCCCN)c(Cl)c1` [Example Z2, N-[4-(3-aminopropylcarbamoyl)-3-chloro-phenyl]-5-[1-(5-amino-2-pyridyl)-3-(trifluoromethyl)pyrazol-4-yl]-1-methyl-imidazole-2-carboxamide], the IC90 turned out to be 980 nM.

Regarding `Cc1cc(-n2cc(-c3cnc(C(=O)Nc4ccc(C(=O)N5CCN(C(=O)C6CCNCC6)CC5)c(Cl)c4)n3C)c(C(F)(F)F)n2)cnc1N` [Example Z77, 5-[1-(6-amino-5-methyl-3-pyridyl)-3-(trifluoromethyl)pyrazol-4-yl]-N-[3-chloro-4-[4-(piperidine-4-carbonyl)piperazine-1-carbonyl]phenyl]-1-methyl-imidazole-2-carboxamide], the 90% effect concentration (IC90) was found to be 410 nM.

With `Cn1c(-c2cn(-c3ccc(N)cn3)nc2C(F)(F)F)cnc1C(=O)Nc1ccc(C(=O)NCC2(NC(=O)[C@@H]3CC(O)CN3)CC2)c(Cl)c1` (stereo in doubt) [Example Z43, 5-[1-(5-amino-2-pyridyl)-3-(trifluoromethyl)pyrazol-4-yl]-N-[3-chloro-4-[[1-[[(2S,4R)-4-hydroxyprolyl]amino]cyclopropyl]methylcarbamoyl]phenyl]-1-methyl-imidazole-2-carboxamide], the IC90 came to 1220 nM.

As to `COc1cc(-n2cc(-c3cnc(C(=O)Nc4ccc(C(=O)N5CCN(C(=O)C6CCNCC6)CC5)c(Cl)c4)n3C)c(C(F)(F)F)n2)ccn1` [Example Z73, N-[3-chloro-4-(4-isonipecotoylpiperazine-1-carbonyl)phenyl]-5-[1-(2-methoxy-4-pyridyl)-3-(trifluoromethyl)pyrazol-4-yl]-1-methyl-imidazole-2-carboxamide], the IC90 came out at 950 nM.

For `CC[C@@H]1CNCCN1C(=O)c1ccc(NC(=O)c2ncc(-c3cn(-c4ccc(N)cn4)nc3C(F)(F)F)n2C)cc1Cl` [Example Z63, 5-[1-(5-amino-2-pyridyl)-3-(trifluoromethyl)pyrazol-4-yl]-N-[3-chloro-4-[(2R)-2-ethylpiperazine-1-carbonyl]phenyl]-1-methyl-imidazole-2-carboxamide], the IC90 was 1170 nM.

With `Cn1c(-c2cn(-c3ccc(N)cn3)nc2C(F)(F)F)cnc1C(=O)Nc1ccc(C(=O)N2CCNCC2)c(Cl)c1` [Example Z32, 5-[1-(5-amino-2-pyridyl)-3-(trifluoromethyl)pyrazol-4-yl]-N-[3-chloro-4-(piperazine-1-carbonyl)phenyl]-1-methyl-imidazole-2-carboxamide], the IC90 was 390 nM.

Consider `CN1CCC(C(=O)N2CCN(C(=O)c3ccc(NC(=O)c4ncc(-c5cn(-c6ccc(N)cn6)nc5C#N)n4C)cc3Cl)CC2)CC1` [Example C11, 5-[1-(5-amino-2-pyridyl)-3-cyano-pyrazol-4-yl]-N-[3-chloro-4-[4-(1-methylpiperidine-4-carbonyl)piperazine-1-carbonyl]phenyl]-1-methyl-imidazole-2-carboxamide], for which the IC90 worked out at 2000 nM.

Consider `Cn1c(-c2cn(-c3ncc(F)cn3)nc2C(F)(F)F)cnc1C(=O)Nc1ccc(C(=O)N2CCN(C(=O)C3CCNCC3)CC2)c(Cl)c1` [Example A8, N-[3-chloro-4-[4-(piperidine-4-carbonyl)piperazine-1-carbonyl]phenyl]-5-[1-(5-fluoropyrimidin-2-yl)-3-(trifluoromethyl)pyrazol-4-yl]-1-methyl-imidazole-2-carboxamide], for which the concentration for an effect of 90% (IC90) turned out to be 910 nM.

With `Cn1c(-c2cn(-c3ccc(N)cn3)nc2C(F)(F)F)cnc1C(=O)Nc1ccc(C(=O)NCCOCCNC(=O)[C@@H]2C[C@@H](O)CN2)c(Cl)c1` [Example Z40, 5-[1-(5-amino-2-pyridyl)-3-(trifluoromethyl)pyrazol-4-yl]-N-[3-chloro-4-[2-[2-[[(2S,4R)-4-hydroxyprolyl]amino]ethoxy]ethylcarbamoyl]phenyl]-1-methyl-imidazole-2-carboxamide], the 90% effect concentration (IC90) came out at 780 nM.

As to `Cn1c(-c2cn(-c3ccc(N)nc3F)nc2C(F)(F)F)cnc1C(=O)Nc1ccc(C(=O)N2CCN(C(=O)C3CCNCC3)CC2)c(Cl)c1` [Example Z84, 5-[1-(6-amino-2-fluoro-3-pyridyl)-3-(trifluoromethyl)pyrazol-4-yl]-N-[3-chloro-4-[4-(piperidine-4-carbonyl)piperazine-1-carbonyl]phenyl]-1-methyl-imidazole-2-carboxamide], the IC90 worked out at 230 nM.

With `C[C@H]1CN(C(=O)c2ccc(NC(=O)c3ncc(-c4cn(-c5ccc(N)cn5)nc4C(F)(F)F)n3C)cc2Cl)CCN1` [Example Z61, 5-[1-(5-amino-2-pyridyl)-3-(trifluoromethyl)pyrazol-4-yl]-N-[3-chloro-4-[(3S)-3-methylpiperazine-1-carbonyl]phenyl]-1-methyl-imidazole-2-carboxamide], the 90% effect concentration (IC90) is 700 nM.

Take `Cn1c(-c2cn(-c3ccc(N)cn3)nc2C(F)(F)F)cnc1C(=O)Nc1ccc(C(=O)N2CCC(N)CC2)c(Cl)c1` [Example Z20, N-[4-(4-aminopiperidine-1-carbonyl)-3-chloro-phenyl]-5-[1-(5-amino-2-pyridyl)-3-(trifluoromethyl)pyrazol-4-yl]-1-methyl-imidazole-2-carboxamide]: the IC90 came to 330 nM.

For the molecule `COCc1c[nH]nc1-n1cc(-c2cnc(C(=O)Nc3ccc(C(=O)N4CCN(C(=O)C5CCN(C)CC5)CC4)c(Cl)c3)n2C)c(C(F)(F)F)n1` [Example Z9, N-[3-chloro-4-[4-(1-methylpiperidine-4-carbonyl)piperazine-1-carbonyl]phenyl]-5-[1-[4-(methoxymethyl)-1H-pyrazol-3-yl]-3-(trifluoromethyl)pyrazol-4-yl]-1-methyl-imidazole-2-carboxamide], the 90% effect concentration (IC90) was found to be 1080 nM.

On to `Cn1c(-c2cn(-c3ccc(N)cn3)nc2C(F)(F)F)cnc1C(=O)Nc1ccc(C(=O)N2C3CCC2CNC3)c(Cl)c1` [Example Z62, 5-[1-(5-amino-2-pyridyl)-3-(trifluoromethyl)pyrazol-4-yl]-N-[3-chloro-4-(3,8-diazabicyclo[3.2.1]octane-8-carbonyl)phenyl]-1-methyl-imidazole-2-carboxamide], for which the IC90 is 380 nM.

As for `Cn1c(-c2cn(-c3ccc(N)cn3)nc2C(F)(F)F)cnc1C(=O)Nc1ccc(C(=O)N2CCC3(CCNC3)CC2)c(Cl)c1` [Example Z8, 5-[1-(5-amino-2-pyridyl)-3-(trifluoromethyl)pyrazol-4-yl]-N-[3-chloro-4-(2,8-diazaspiro[4.5]decane-8-carbonyl)phenyl]-1-methyl-imidazole-2-carboxamide], the IC90 worked out at 370 nM.

Turning to `Cn1c(-c2cn(-c3ccc(N)cn3)nc2C(F)(F)F)cnc1C(=O)Nc1ccc(C(=O)N2CC3CCCC(C2)N3)c(Cl)c1` [Example Z53, 5-[1-(5-amino-2-pyridyl)-3-(trifluoromethyl)pyrazol-4-yl]-N-[3-chloro-4-(3,9-diazabicyclo[3.3.1]nonane-3-carbonyl)phenyl]-1-methyl-imidazole-2-carboxamide], the IC90 is 500 nM.

As for `Cn1c(-c2cn(-c3ncc4cn[nH]c4n3)nc2C(F)(F)F)cnc1C(=O)Nc1ccc(C(=O)N2CCN(C(=O)C3CCNCC3)CC2)c(Cl)c1` [Example A9, N-[3-chloro-4-[4-(piperidine-4-carbonyl)piperazine-1-carbonyl]phenyl]-1-methyl-5-[1-(1h-pyrazolo[3,4-d]pyrimidin-6-yl)-3-(trifluoromethyl)pyrazol-4-yl]imidazole-2-carboxamide], the 90% effect concentration (IC90) is 510 nM.

As for `Cn1c(-c2cn(-c3ccc(N)cn3)nc2C(F)(F)F)cnc1C(=O)Nc1ccc(C(=O)N[C@H]2C[C@H](NC(=O)[C@@H]3C[C@@H](O)CN3)C2)c(Cl)c1` [Example Z38, 5-[1-(5-amino-2-pyridyl)-3-(trifluoromethyl)pyrazol-4-yl]-N-[3-chloro-4-[trans-[3-[[(2S,4R)-4-hydroxyprolyl]amino]cyclobutyl]carbamoyl]phenyl]-1-methyl-imidazole-2-carboxamide], the 90% effect concentration (IC90) was determined as 660 nM.

Consider `CN(C(=O)c1ccc(NC(=O)c2ncc(-c3cn(-c4ccc(N)cn4)nc3C(F)(F)F)n2C)cc1Cl)C1CCN(C(=O)[C@@H]2C[C@@H](O)CN2)CC1` [Example Z35, 5-[1-(5-amino-2-pyridyl)-3-(trifluoromethyl)pyrazol-4-yl]-N-[3-chloro-4-[[1-[(2S,4R)-4-hydroxyprolyl]-4-piperidyl]-methyl-carbamoyl]phenyl]-1-methyl-imidazole-2-carboxamide], for which the IC90 was found to be 270 nM.

Still in this experiment, the particulars now being: Acinetobacter baumannii, ATCC17961, 16 h, read-out: ATCC 17961 IC90.
For the molecule `CN(C)c1cnc(-n2cc(-c3cnc(C(=O)Nc4ccc(C(=O)N5CCN(C(=O)C6CCNCC6)CC5)c(Cl)c4)n3C)c(C(F)(F)F)n2)nc1` [Example B1, N-[3-Chloro-4-[4-(piperidine-4-carbonyl)piperazine-1-carbonyl]phenyl]-5-[1-[5-(dimethylamino)pyrimidin-2-yl]-3-(trifluoromethyl)pyrazol-4-yl]-1-methyl-imidazole-2-carboxamide], the IC90 was found to be 230 nM.

For `Cn1c(-c2cn(-c3ccc(N)cn3)nc2C(F)(F)F)cnc1C(=O)Nc1ccc(C(=O)N2CCC(C(=O)N3CCNCC3)CC2)c(Cl)c1` [Example H1, 5-[1-(5-Amino-2-pyridyl)-3-(trifluoromethyl)pyrazol-4-yl]-N-[3-chloro-4-[4-(piperazine-1-carbonyl)piperidine-1-carbonyl]phenyl]-1-methyl-imidazole-2-carboxamide], the IC90 turned out to be 480 nM.
